This is an account of results in patent US12637453B2, “Pyrazolopyridine inhibitors of c-Jun-n-Terminal kinases and uses thereof” (Dana-Farber Cancer Institute, Inc., priority 2019, dated 2026).

Type in all cases: biochemical
One assay deals with JNK1 (Homo sapiens, UniProt P45983). Briefly: IC50 assay for JNK kinase inhibition, JNK1.
For the next assay, the target named is JNK3 (Homo sapiens, UniProt P53779). The experiment in a line: IC50 assay for JNK kinase inhibition, JNK3.
For a further assay, the target named is JNK2 (Homo sapiens, UniProt P45984). Briefly: IC50 assay for JNK kinase inhibition, JNK2.
Chain of JNK2 (P45984 whole entry): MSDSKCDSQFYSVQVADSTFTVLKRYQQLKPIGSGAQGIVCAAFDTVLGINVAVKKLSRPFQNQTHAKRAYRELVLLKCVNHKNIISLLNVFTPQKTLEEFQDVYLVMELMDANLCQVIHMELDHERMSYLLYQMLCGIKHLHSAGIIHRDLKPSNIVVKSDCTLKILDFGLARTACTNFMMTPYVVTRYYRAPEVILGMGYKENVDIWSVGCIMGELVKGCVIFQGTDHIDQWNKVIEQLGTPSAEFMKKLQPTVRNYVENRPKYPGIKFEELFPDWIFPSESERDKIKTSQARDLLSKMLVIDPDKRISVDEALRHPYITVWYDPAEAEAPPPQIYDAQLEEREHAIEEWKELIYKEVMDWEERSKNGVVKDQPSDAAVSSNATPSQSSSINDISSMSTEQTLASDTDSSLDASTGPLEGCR

Chain of JNK3 (P53779 whole entry): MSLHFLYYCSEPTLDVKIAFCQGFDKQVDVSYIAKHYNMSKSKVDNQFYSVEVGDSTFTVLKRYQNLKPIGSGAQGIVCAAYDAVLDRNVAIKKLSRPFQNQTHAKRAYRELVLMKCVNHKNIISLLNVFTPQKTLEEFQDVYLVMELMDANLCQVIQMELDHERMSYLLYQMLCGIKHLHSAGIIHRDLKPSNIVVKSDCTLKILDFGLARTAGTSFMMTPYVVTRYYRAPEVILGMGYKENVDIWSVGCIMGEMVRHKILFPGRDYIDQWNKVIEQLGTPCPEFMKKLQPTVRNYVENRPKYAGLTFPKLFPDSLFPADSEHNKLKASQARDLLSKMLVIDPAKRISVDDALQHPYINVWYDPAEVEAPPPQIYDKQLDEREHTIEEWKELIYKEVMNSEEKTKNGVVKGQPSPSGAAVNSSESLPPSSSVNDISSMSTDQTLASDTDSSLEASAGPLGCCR
Chain of JNK1 (P45983 whole entry): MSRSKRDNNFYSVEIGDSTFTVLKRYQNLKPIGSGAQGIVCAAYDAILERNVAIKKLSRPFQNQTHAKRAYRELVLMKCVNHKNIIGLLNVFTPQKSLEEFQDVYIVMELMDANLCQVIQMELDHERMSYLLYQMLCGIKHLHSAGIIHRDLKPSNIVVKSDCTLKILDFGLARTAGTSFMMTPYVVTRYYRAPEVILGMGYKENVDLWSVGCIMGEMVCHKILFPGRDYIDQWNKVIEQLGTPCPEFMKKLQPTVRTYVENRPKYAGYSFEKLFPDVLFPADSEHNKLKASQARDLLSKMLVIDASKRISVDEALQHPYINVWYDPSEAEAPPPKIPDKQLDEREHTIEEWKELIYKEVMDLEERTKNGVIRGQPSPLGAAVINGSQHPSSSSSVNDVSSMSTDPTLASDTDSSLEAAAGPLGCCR

In the case of `CN(C)CCCC(=O)Nc1ccc(C(=O)N2CC[C@H](Nc3nccc(-c4c(-c5ccccc5)nn5ccccc45)n3)C2)cc1` [I-12, (S)-4-(dimethylamino)-N-(4-(3-((4-(2-phenylpyrazolo[1,5-a]pyridin-3-yl)pyrimidin-2-yl)amino)pyrrolidine-1-carbonyl)phenyl)butanamide], the 50% inhibitory concentration (IC50) (usually the point on the concentration scale where inhibition reaches its midpoint) against JNK1 came out at 320 nM; against JNK3, 110 nM; on JNK2, 17.6 nM.
The matching figures for `CN(C)C/C=C/C(=O)Nc1ccc(C(=O)N2CC[C@H](Nc3nccc(-c4c(-c5ccc(F)cc5)nn5ccccc45)n3)C2)cc1` [I-22, (S,E)-4-(dimethylamino)-N-(4-(3-((4-(2-(4-fluorophenyl)pyrazolo[1,5-a]pyridin-3-yl)pyrimidin-2-yl)amino)pyrrolidine-1-carbonyl)phenyl)but-2-enamide]: 85 nM, 3.87 nM and 5.57 nM.
The corresponding values for `CN(C)C/C=C/C(=O)Nc1ccc(C(=O)N2CCCC[C@H](Nc3nccc(-c4c(-c5ccccc5)nn5ccccc45)n3)C2)cc1` [I-13, (S,E)-4-(dimethylamino)-N-(4-(3-((4-(2-phenylpyrazolo[1,5-a]pyridin-3-yl)pyrimidin-2-yl)amino)azepane-1-carbonyl)phenyl)but-2-enamide] are 308 nM, 20 nM and 31 nM.
The corresponding values for `CN(C)CCCC(=O)Nc1ccc(C(=O)N2CCCC[C@H](Nc3nccc(-c4c(-c5ccccc5)nn5ccccc45)n3)C2)cc1` [I-14, (S)-4-(dimethylamino)-N-(4-(3-((4-(2-phenylpyrazolo[1,5-a]pyridin-3-yl)pyrimidin-2-yl)amino)azepane-1-carbonyl)phenyl)butanamide] are 314 nM, 252 nM and 29 nM.
Consider `CN(C)CCCC(=O)Nc1ccc(C(=O)N2CCC[C@H](Nc3nccc(-c4c(-c5ccccc5)nn5ccccc45)n3)C2)cc1` [I-2, (S)-4-(dimethylamino)-N-(4-(3-((4-(2-phenylpyrazolo[1,5-a]pyridin-3-yl)pyrimidin-2-yl)amino)piperidine-1-carbonyl)phenyl)butanamide], for which the results for the IC50 against JNK1, at JNK3 and against JNK2 were 64 nM, 20 nM and 11 nM, respectively.
The corresponding values for `CN(C)CCCC(=O)Nc1ccc(C(=O)N2CC[C@@H](Nc3nccc(-c4c(-c5ccccc5)nn5ccccc45)n3)C2)cc1` [I-8, (R)-4-(dimethylamino)-N-(4-(3-((4-(2-phenylpyrazolo[1,5-a]pyridin-3-yl)pyrimidin-2-yl)amino)pyrrolidine-1-carbonyl)phenyl)butanamide] are 73.4 nM, 21.4 nM and 5.59 nM.
The corresponding values for `CN(C)C/C=C/C(=O)Nc1ccc(C(=O)N2CCCC[C@@H](Nc3nccc(-c4c(-c5ccccc5)nn5ccccc45)n3)C2)cc1` [I-9, (R,E)-4-(dimethylamino)-N-(4-(3-((4-(2-phenylpyrazolo[1,5-a]pyridin-3-yl)pyrimidin-2-yl)amino)azepane-1-carbonyl)phenyl)but-2-enamide] are 403 nM, 96.1 nM and 15.9 nM.
For the compound `CN(C)C/C=C/C(=O)Nc1ccc(C(=O)N2CC[C@H](Nc3nccc(-c4c(-c5ccccc5)nn5ccccc45)n3)C2)cc1` [I-11, (S,E)-4-(dimethylamino)-N-(4-(3-((4-(2-phenylpyrazolo[1,5-a]pyridin-3-yl)pyrimidin-2-yl)amino)pyrrolidine-1-carbonyl)phenyl)but-2-enamide], the IC50 was determined as 152 nM on JNK1, 51.4 nM against JNK3 and 4.91 nM against JNK2.
The matching figures for `CN(C)C/C=C/C(=O)Nc1ccc(C(=O)N2CC[C@H](Nc3nccc(-c4c(-c5ccc(Cl)cc5)nn5ccccc45)n3)C2)cc1` [I-26, (S,E)-N-(4-(3-((4-(2-(4-chlorophenyl)pyrazolo[1,5-a]pyridin-3-yl)pyrimidin-2-yl)amino)pyrrolidine-1-carbonyl)phenyl)-4-(dimethylamino)but-2-enamide]: 8.9 nM, 10.3 nM and 67.6 nM.
